Measured values taken from US7247734B2 (Vernalis (Cambridge) Limited, priority 2001, dated 2007).

Test system: HSP70 and client protein (CDK4) expression in HT29 cells
Test: Western blotting of HSP70 and CDK4 in HT29 cells
Assay type: cell-based, human
Conditions: 24 hours, various concentrations
Experimental: The cellular effects of HSP90 inhibitors can be measured using a number of molecular markers. As already mentioned, HSP90 inhibition leads to the depletion of several important cellular signalling proteins. […] Depletion is normally observed by 6 h, with maximum depletion occurring at 24 h. As well as RAF-1, depletion of several other HSP90 client proteins can be measured by immunoblotting e.g., CDK4, ERBB2. However, it is important to note that some of these proteins are cell line specific e.g., ERBB2 is expressed mainly in breast, thyroid, kidney and some ovarian tumour cell lines. Another very important marker of HSP90 inhibition is heat shock protein 70 (HSP70). A HSF-1 (heatshock factor 1) dependent increase in HSP70 levels has been reported by us and other groups (see, e.g., Whitesell et al., 1994; Clarke et al., 2000) and this effect can serve as a positive indicator of HSP90 inhibitor action. The immunoblotting method described is based on standard techniques but is described in detail for ease of reference.
Prepare as required and store at −20° C. • (4) Bicinchoninic acid (BCA) protein assay reagents (PerBio Science UK, Ltd., Chester, UK). • (5) Casein blocking buffer (0.5% casein, 0.02% thimerosal, in PBS). Store at 4° C. for up to 2 weeks. • (6) Wash buffer (phosphate buffered saline, PBS) containing 0.05% Tween 20). • (7) Tris-glycine gradient polyacrylamide precast gels (4–20%) (1 mm thick) (Novex, InVitrogen, Groningen, NL). • (8) Nitro-cellulose membrane (0.2 μm pore size) (InVitrogen, Groningen, NL). • (9) Ponceau Red stain (2% w/v in 30% TCA/30% […], Sigma Aldrich Ltd., Pool, UK). • (10) Enhanced chemiluminescence (SuperSignal) reagents (PerBio Science UK, Ltd., Chester, UK). • (11) Photographic film (Hyperfilm ECL, Amersham Pharmacia Biotech, Little Chalfont, Bucks, UK). Method
The following protocol was used: • (1) Lyse cells (approx 4×10^6) in 100 μl lysis buffer for 30 minutes on ice. When adding the lysis buffer, shear cells by pipetting up and down using a Gilson P200 pipette. • (2) Spin lysates for 10 min at 13,000 rpm at 4° C., retrieve supernatant and store at −70° C. • (3) Determine protein concentration using BCA protein assay reagents. • (4) Load samples of cell lysates (50 μg protein/lane) onto gel and separate proteins by SDS-polyacrylamide gel electrophoresis (SDS-PAGE) using a 4–20% Tris-glycine gel. • (5) Transfer proteins to nitrocellulose membrane using optimum conditions for the equipment available. For example, 150 mA for 2 h using the Mighty Small transfer system (Hoeffer TE22 Mini Tank Transphor Unit, Amersham Pharmacia Biotech, Little Chalfont, Bucks, UK). […]
Comments • (1) The protein bands are normally evaluated visually. […]

`CCc1cc(-c2n[nH]c(C)c2-c2ccc3c(c2)OCCO3)c(O)cc1O` [CCT018159, 4-[4-(2,3-Dihydro-benzo[1,4]dioxin-6-yl)-5-methyl-1H-pyrazol-3-yl]-6-ethyl-benzene-1,3-diol] was tested, and the “CDK4 client protein expression (immunoblot)” value was “depleted” and the “HSP70 expression (immunoblot)” value was “elevated HSP70 expression”.
